Molecular target: human recombinant H-PGDS (Homo sapiens, UniProt O60760)
Assay: Fluorescence Intensity h-PGDS TBA Enzyme Assay
Type: biochemical
Settings: 1:175,000 human recombinant H-PGDS, highest inhibitor concentration typically 1 μM
Protocol: Fluorescence Intensity h-PGDSTBA Enzyme Assay
Prostaglandin D Synthase (PGDS) converts the substrate prostaglandin H2 (PGH2) to prostaglandin D2. The depletion of PGH2 was measured via an Fe(II) reduction of the remaining PGH2 to malondialdehyde (MDA) and 12-HHT. The enzyme assay is based on the quantitative formation of a fluorescent complex from the non-fluorescent compounds MDA and 2-thiobarbituric acid (TBA), substantially as described in U.S. patent application publication US-2004/152148 by Lombardt.
The enzyme assay (31 μls) contained 100 mM Tris base pH 8.0, 100 μM MgCl2, 0.1 mg/ml IgG Rabbit serum, 5.0 μM PGH2 (Cayman; ethanol solution, #17020), 2.5 mM L-Glutathione (Sigma; reduced form #G4251), 1:175,000 human recombinant H-PGDS (from 1 mg/ml), 0.5% DMSO and inhibitor (varying concentration). Three μls of diluted inhibitor (dissolved in DMSO) was plated into a 384-well assay plate followed by a 25 μl addition of an enzyme solution containing h-PGDS, Tris, MgCl2, IgG and L-Glutathione. After preincubation of inhibitor and enzyme solution for 10 minutes at room temperature, the reaction was initiated with a 3 μl addition of substrate solution in 10 mM HCl. The reaction was terminated after 42 second by the addition (3 μl) of stop buffer containing FeCl2 and citric acid. After addition of 45.5 μls of TBA plates were heated for one hour in a 70 C oven. Plates were cooled at room temperature overnight and read on a plate reader the next day with excitation @ 530 nm and emission @ 565 nm.
IC50's of inhibitors were calculated with a 4-parameter fit using 11 inhibitor concentrations in duplicate with 3-fold serial dilutions. Controls on each plate included no inhibitor (zero % effect) and an inhibitor 10-fold in excess of its' IC50 (100% effect). The highest inhibitor concentration tested was typically 1 μM.

Sequence of human recombinant H-PGDS (O60760 whole entry): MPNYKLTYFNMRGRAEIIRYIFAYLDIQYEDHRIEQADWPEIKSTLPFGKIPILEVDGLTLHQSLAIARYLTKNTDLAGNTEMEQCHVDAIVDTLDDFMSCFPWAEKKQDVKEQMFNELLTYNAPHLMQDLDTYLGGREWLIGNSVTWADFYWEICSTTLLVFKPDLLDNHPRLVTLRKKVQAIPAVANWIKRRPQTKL

| SMILES | IC50 [nM] |
| --- | --- |
| CCOC(=O)C(CNC(=O)c1ccc(-c2cccc(OC)c2)nc1)c1c(F)cccc1F (centres unmarked) [Example 331, Ethyl 2-(2,6-difluorophenyl)-3-({[6-(3-methoxyphenyl)pyridin-3-yl]carbonyl}amino) propanoate] | 234 |
| COc1cccc(-c2ccc(C(=O)NCc3ccc(-n4cncn4)cc3)cn2)c1 [Example 291, 6-(3-Methoxyphenyl)-N-[4-(1H-1,2,4-triazol-1-yl)benzyl]nicotinamide] | 203 |
| CC(C)(CO)CNC(=O)c1ccc(-c2cccc(F)c2)nc1 [Example 447, 6-(3-Fluorophenyl)-N-(3-hydroxy-2,2-dimethylpropyl) nicotinamide] | 47.3 |
| COCCN1CCC(CNC(=O)c2ccc(-c3cccc(F)c3)nc2)CC1 [Example 19, 6-(3-Fluorophenyl)-N-{[1-(2-methoxyethyl)piperidin-4-yl]methyl}nicotinamide] | 117 |
| Cc1cc(C)nc(CCNC(=O)c2ccc(-c3cccc(F)c3)nc2)n1 [Example 143, N-[2-(4,6-Dimethylpyrimidin-2-yl)ethyl]-6-(3-fluorophenyl)nicotinamide] | 11 |
| O=C(NCCN1CCOCC1)c1ccc(-c2ccccc2)nc1 [Example 389, N-(2-Morpholin-4-ylethyl)-6-phenylnicotinamide] | 23.9 |
| CS(=O)(=O)Cc1noc(CNC(=O)c2ccc(-c3ccc(F)cc3)nc2)n1 [Example 322, 6-(4-Fluorophenyl)-N-({3-[(methylsulfonyl)methyl]-1,2,4-oxadiazol-5-yl}methyl)nicotinamide] | ≥ 1000 |
| Cc1cc(Br)ccc1NC(=O)c1ccc(-c2ccccc2)nc1 [Example 398, N-(4-Bromo-2-methylphenyl)-6-phenylnicotinamide] | 3.3 |
| CN(C)CCOc1ccc(CNC(=O)c2cnc(-c3cccc(F)c3)c(Cl)c2)cc1 [Example 561, 5-Chloro-N-{4-[2-(dimethylamino)ethoxy]benzyl}-6-(3-fluorophenyl)nicotinamide] | 19.8 |
| O=C(NCc1nc2ccccc2s1)c1cnc(-c2cccc(F)c2)c(Cl)c1 [Example 546, N-(1,3-Benzothiazol-2-ylmethyl)-5-chloro-6-(3-fluorophenyl)nicotinamide] | 59.6 |
| CC[C@H](CC#N)NC(=O)c1ccc(-c2cccc(F)c2)nc1 [Example 65, N-[(1R)-1-(Cyanomethyl)propyl]-6-(3-fluorophenyl)nicotinamide] | 60.3 |
| CCOC(=O)CC[C@H](NC(=O)c1ccc(-c2ccc(F)cc2)nc1)C(=O)OCC [Example 471, Diethyl N-{[6-(4-fluorophenyl)pyridin-3-yl]carbonyl}-L-glutamate] | 192 |
| O=C(NCCN1CCNC1=O)c1ccc(-c2cccc(F)c2)nc1 [Example 148, 6-(3-Fluorophenyl)-N-[2-(2-oxoimidazolidin-1-yl)ethyl]nicotinamide] | 32 |
| Cc1cccc(-c2ccc(C(=O)NCc3cccc(S(C)(=O)=O)c3)cn2)c1 [Example 245, 6-(3-Methylphenyl)-N-[3-(methylsulfonyl)benzyl] nicotinamide] | 11.5 |
| COc1cccc(-c2ccc(C(=O)NCc3ccccc3C)cn2)c1 [Example 333, 6-(3-Methoxyphenyl)-N-(2-methylbenzyl)nicotinamide] | 77.1 |
| O=C(NCC1CC2(CCN(c3cnccn3)CC2)CO1)c1ccc(-c2cccc(F)c2)nc1 (centres unmarked) [Example 54, 6-(3-Fluorophenyl)-N-[(8-pyrazin-2-yl-2-oxa-8-azaspiro[4.5]dec-3-yl)methyl]nicotinamide] | 13.5 |
| C[C@H](CNC(=O)c1ccc(-c2cccc(F)c2)nc1)NC(=O)OCc1ccccc1 [Example 437, Benzyl [(1R)-2-({[6-(3-fluorophenyl)pyridin-3-yl]carbonyl}amino)-1-methylethyl]carbamate] | 54.3 |
| COc1cccc(-c2ccc(C(=O)NCCN3CCCC3=O)cn2)c1 [Example 300, 6-(3-methoxyphenyl)-N-[2-(2-oxopyrrolidin-1-yl)ethyl]nicotinamide] | 762 |
| Cc1ncsc1CCCNC(=O)c1ccc(-c2cccc(F)c2)nc1 [Example 85, 6-(3-Fluorophenyl)-N-[3-(4-methyl-1,3-thiazol-5-yl)propyl]nicotinamide] | 4.88 |
| COC(=O)[C@H](Cc1ccc(Cl)cc1)NC(=O)c1ccc(-c2ccccc2)nc1 [Example 369, Methyl 4-chloro-N-[(6-phenylpyridin-3-yl)carbonyl]phenylalaninate] | 9.3 |
| O=C(NCc1nnc(-c2cccnc2)[nH]1)c1ccc(-c2cccc(F)c2)nc1 [Example 524, 6-(3-Fluorophenyl)-N-[(5-pyridin-3-yl-4H-1,2,4-triazol-3-yl)methyl]nicotinamide] | 9.36 |

| SMILES | IC50 [nM] |
| --- | --- |
| COc1cccc(-c2ccc(C(=O)NCc3ccc(OC)c(OC)c3)cn2)c1 [Example 275, N-(3,4-Dimethoxybenzyl)-6-(3-methoxyphenyl)nicotinamide] | 179 |
| O=C(NCCC1CNCCO1)c1ccc(-c2ccc(F)cc2)nc1 (centres unmarked) [Example 458, 6-(4-Fluorophenyl)-N-(2-morpholin-2-ylethyl)nicotinamide] | 697 |
| CC(C)(CNC(=O)c1ccc(-c2cccc(F)c2)nc1)N1CCOCC1 [Example 417, 6-(3-Fluorophenyl)-N-(2-methyl-2-morpholin-4-ylpropyl)nicotinamide] | 40.1 |
| CSc1ccc(CNC(=O)c2ccc(-c3ccccc3)nc2)cc1 [Example 518, N-[4-(Methylthio)benzyl]-6-phenylnicotinamide] | 17.5 |
| Cc1cccc(-c2ccc(C(=O)NCC(=O)N(C)C)cn2)c1 [Example 244, N-[2-(Dimethylamino)-2-oxoethyl]-6-(3-methylphenyl)nicotinamide] | 230 |
| Cc1ccc(C#N)c(N2C[C@H](NC(=O)c3ccc(-c4cccc(F)c4)nc3)[C@@H](O)C2)n1 [Example 562, N-[(3S,4S)-1-(3-Cyano-6-methylpyridin-2-yl)-4-hydroxypyrrolidin-3-yl]-6-(3-fluorophenyl)nicotinamide] | 4.89 |
| COc1ccc(CNC(=O)c2ccc(-c3cccc(OC)c3)nc2)cc1 [Example 303, N-(4-Methoxybenzyl)-6-(3-methoxyphenyl)nicotinamide] | 331 |
| O=C(NC1COC2(CCN(c3nc4ccccc4[nH]3)CC2)C1)c1ccc(-c2cccc(F)c2)nc1 (centres unmarked) [Example 150, N-[8-(1H-Benzimidazol-2-yl)-1-oxa-8-azaspiro[4.5]dec-3-yl]-6-(3-fluorophenyl)nicotinamide] | 2.88 |
| CSc1ccc(CNC(=O)c2ccc(-c3cccc(F)c3)nc2)cc1 [Example 412, 6-(3-Fluorophenyl)-N-[4-(methylthio)benzyl] nicotinamide] | 46.8 |
| COC(=O)[C@H](C)NC(=O)c1ccc(-c2cccc(C)c2)nc1 [Example 219, Methyl N-{[6-(3-methylphenyl)pyridin-3-yl]carbonyl}alaninate] | 89.4 |
| Cc1cc(=O)[nH]c(NCCNC(=O)c2ccc(-c3cccc(F)c3)nc2)n1 [Example 7, 6-(3-Fluorophenyl)-N-{2-[(4-methyl-6-oxo-1,6-dihydropyrimidin-2-yl)amino]ethyl}nicotinamide] | 38.8 |
| COC(=O)CNC(=O)c1ccc(-c2ccc(F)cc2)nc1 [Example 500, Methyl N-{[6-(4-fluorophenyl)pyridin-3-yl]carbonyl}glycinate] | ≥ 1000 |
| COc1cccc(-c2ccc(C(=O)NCc3ccc(Cl)cc3)cn2)c1 [Example 281, N-(4-Chlorobenzyl)-6-(3-methoxyphenyl)nicotinamide] | 561 |
| CCOC(=O)C1(NC(=O)c2ccc(-c3cccc(F)c3)nc2)CCOCC1 [Example 159, Ethyl 4-({[6-(3-fluorophenyl)pyridin-3-yl]carbonyl}amino)tetrahydro-2H-pyran-4-carboxylate] | 391 |
| CNS(=O)(=O)c1ccc(CNC(=O)c2ccc(-c3cccc(C)c3)nc2)cc1 [Example 218, N-{4-[(Methylamino)sulfonyl]benzyl}-6-(3-methylphenyl)nicotinamide] | 27.6 |
| CN(C)CCCCCNC(=O)c1ccc(-c2cccc(F)c2)nc1 [Example 77, N-[5-(Dimethylamino)pentyl]-6-(3-fluorophenyl)nicotinamide] | 90.3 |
| O=C(NCCCn1ncc2ccccc21)c1cnc(-c2cccc(F)c2)c(Cl)c1 [Example 551, 5-Chloro-6-(3-fluorophenyl)-N-[3-(1H-indazol-1-yl)propyl]nicotinamide] | 84.7 |
| O=C(NCC(O)c1ccccc1F)c1ccc(-c2cccc(F)c2)nc1 (centres unmarked) [Example 79, 6-(3-Fluorophenyl)-N-[2-(2-fluorophenyl)-2-hydroxyethyl]nicotinamide] | 10.3 |
| CN1CCC(CNC(=O)c2ccc(-c3cccc(F)c3)nc2)CC1 [Example 113, 6-(3-Fluorophenyl)-N-[(1-methylpiperidin-4-yl)methyl]nicotinamide] | 149 |
| Cc1ccccc1CNC(=O)c1ccc(-c2cccc(F)c2)nc1 [Example 153, 6-(3-Fluorophenyl)-N-(2-methylbenzyl)nicotinamide] | 2.99 |

Source: patent US20110306597A1, “Nicotinamide Derivatives” (priority 2008, published 2011)
